Source: ChEMBL document CHEMBL1144861, “Synthesis and biological activities of novel 4"-alkylidene avermectin derivatives” (2003)
Converted amounts (≈) assume the structure as drawn.

Assays:
[1] = test system: Caenorhabditis elegans; experiment: In vitro inhibitory activity required against Caenorhabditis elegans.; assay type: functional
[2] = test system: Artemia salina; experiment: In vitro inhibitory activity required against Artemia salina; assay type: functional

Compound	MIC [1] [µg/mL]	MIC [2] [µg/mL]
C=CCOC(=O)/C=C1/[C@H](C)O[C@@H](O[Si](C)(C)C(C)(C)C)C[C@@H]1OC	0.01 (≈ 0.028 µM)	0.002 (≈ 0.00561 µM)
CO/N=C/C=C1\[C@H](C)O[C@@H](O[Si](C)(C)C(C)(C)C)C[C@@H]1OC	0.01 (≈ 0.0303 µM)	0.01 (≈ 0.0303 µM)
CO[C@H]1C[C@H](O[Si](C)(C)C(C)(C)C)O[C@@H](C)/C1=C\COC(=O)c1cccnc1	0.01 (≈ 0.0245 µM)	0.002 (≈ 0.00491 µM)
CO[C@H]1C[C@H](O[Si](C)(C)C(C)(C)C)O[C@@H](C)/C1=C/CN1CCOCC1	0.01 (≈ 0.0269 µM)	0.01 (≈ 0.0269 µM)
CO[C@H]1C[C@H](O[Si](C)(C)C(C)(C)C)O[C@@H](C)/C1=C/CN1CCCCC1	0.05 (≈ 0.135 µM)	0.01 (≈ 0.0271 µM)
CO[C@H]1C[C@H](O[Si](C)(C)C(C)(C)C)O[C@@H](C)/C1=C/CCl	0.01 (≈ 0.0312 µM)	0.01 (≈ 0.0312 µM)
CO[C@H]1C[C@H](O[Si](C)(C)C(C)(C)C)O[C@@H](C)/C1=C/C(=O)O	0.01 (≈ 0.0316 µM)	0.002 (≈ 0.00632 µM)
CO[C@H]1C[C@H](O[Si](C)(C)C(C)(C)C)O[C@@H](C)/C1=C/C=O	0.01 (≈ 0.0333 µM)	0.01 (≈ 0.0333 µM)
CO[C@H]1C[C@H](O[Si](C)(C)C(C)(C)C)O[C@@H](C)/C1=C\C(=O)O	0.01 (≈ 0.0316 µM)	0.002 (≈ 0.00632 µM)
CO[C@H]1C[C@H](O[Si](C)(C)C(C)(C)C)O[C@@H](C)/C1=C/C(=O)N1CCNCC1	0.01 (≈ 0.026 µM)	0.002 (≈ 0.0052 µM)
CCOC(=O)/C=C1/[C@H](C)O[C@@H](O[Si](C)(C)C(C)(C)C)C[C@@H]1OC	0.01 (≈ 0.029 µM)	0.01 (≈ 0.029 µM)
CC[C@H](C)[C@H]1O[C@]2(C=C[C@@H]1C)C[C@@H]1C[C@@H](C/C=C(\C)[C@@H](O[C@H]3C[C@H](OC)[C@@H](O[C@H]4C[C@H](OC)[C@@H](O)[C@H](C)O4)[C@H](C)O3)[C@@H](C)/C=C/C=C3\CO[C@@H]4[C@H](O)C(C)=C[C@@H](C(=O)O1)[C@]34O)O2 [ABAMECTIN COMPONENT B1A]	0.002 (≈ 0.00229 µM)	0.0005 (≈ 0.000573 µM)

Continued by falling MIC [1], values first:

MIC [1] [µg/mL]	Compound	MIC [2] [µg/mL]
0.05 (≈ 0.123 µM)	CO[C@H]1C[C@H](O[Si](C)(C)C(C)(C)C)O[C@@H](C)/C1=C\COC(=O)c1ccncc1	0.01 (≈ 0.0245 µM)
0.01 (≈ 0.0259 µM)	CO[C@H]1C[C@H](O[Si](C)(C)C(C)(C)C)O[C@@H](C)/C1=C/C(=O)N1CCOCC1	0.01 (≈ 0.0259 µM)
0.01 (≈ 0.0331 µM)	CO[C@H]1C[C@H](O[Si](C)(C)C(C)(C)C)O[C@@H](C)/C1=C/CO	0.01 (≈ 0.0331 µM)
0.01 (≈ 0.027 µM)	CO[C@H]1C[C@H](O[Si](C)(C)C(C)(C)C)O[C@@H](C)/C1=C/CN1CCNCC1	0.002 (≈ 0.0054 µM)
0.01 (≈ 0.0261 µM)	CO[C@H]1C[C@H](O[Si](C)(C)C(C)(C)C)O[C@@H](C)/C1=C/C(=O)N1CCCCC1	0.002 (≈ 0.00521 µM)
0.01 (≈ 0.0317 µM)	CO[C@H]1C[C@H](O[Si](C)(C)C(C)(C)C)O[C@@H](C)/C1=C\C=N\O	0.002 (≈ 0.00634 µM)
0.002	IVERMECTIN	0.002
0.002 (≈ 0.00672 µM)	CO[C@H]1C[C@H](O[Si](C)(C)C(C)(C)C)O[C@@H](C)/C1=C\C#N	0.002 (≈ 0.00672 µM)
0.0005 (≈ 0.00168 µM)	CO[C@H]1C[C@H](O[Si](C)(C)C(C)(C)C)O[C@@H](C)/C1=C/C#N	0.0005 (≈ 0.00168 µM)
